Data from patent US9926281B2 (priority 2014, dated 2018).

Assays:
human ADAMTS-5 = human ADAMTS-5 (Homo sapiens (Human), UniProt Q9UNA0); conditions: read-out: hADAMTS-5 potency IC50
Method: Finally, the fluorescence is read on the Envision (Perkin Elmer) after an incubation of 90 min at 37° C.

human TACE = human TACE (Homo sapiens (Human), UniProt P78536); conditions: read-out: TACE potency IC50
Sequence of human TACE (P78536 whole entry, looked up, change not shown): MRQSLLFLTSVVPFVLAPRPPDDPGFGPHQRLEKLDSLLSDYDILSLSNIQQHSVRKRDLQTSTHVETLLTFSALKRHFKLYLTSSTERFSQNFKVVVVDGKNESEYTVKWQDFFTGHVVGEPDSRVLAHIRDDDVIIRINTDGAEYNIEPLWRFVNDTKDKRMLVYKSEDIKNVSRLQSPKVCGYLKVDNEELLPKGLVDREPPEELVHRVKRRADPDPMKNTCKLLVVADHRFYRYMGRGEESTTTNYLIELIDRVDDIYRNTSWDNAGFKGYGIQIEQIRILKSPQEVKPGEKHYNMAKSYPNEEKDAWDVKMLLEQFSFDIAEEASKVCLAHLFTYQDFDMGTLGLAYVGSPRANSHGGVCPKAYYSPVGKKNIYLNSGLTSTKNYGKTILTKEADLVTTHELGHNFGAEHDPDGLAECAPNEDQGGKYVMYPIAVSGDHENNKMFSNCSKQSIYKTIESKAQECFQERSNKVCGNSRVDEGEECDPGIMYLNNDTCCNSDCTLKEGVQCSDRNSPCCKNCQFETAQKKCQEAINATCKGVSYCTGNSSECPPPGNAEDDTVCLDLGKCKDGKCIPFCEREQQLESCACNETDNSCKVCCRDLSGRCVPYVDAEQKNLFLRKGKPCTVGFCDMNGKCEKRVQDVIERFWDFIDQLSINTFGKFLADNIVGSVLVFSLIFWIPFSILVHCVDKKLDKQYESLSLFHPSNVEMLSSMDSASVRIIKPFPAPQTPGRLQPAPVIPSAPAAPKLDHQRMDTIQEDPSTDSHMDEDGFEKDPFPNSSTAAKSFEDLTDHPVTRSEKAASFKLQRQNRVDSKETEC

Sequence of human ADAMTS-5 (Q9UNA0 262-930): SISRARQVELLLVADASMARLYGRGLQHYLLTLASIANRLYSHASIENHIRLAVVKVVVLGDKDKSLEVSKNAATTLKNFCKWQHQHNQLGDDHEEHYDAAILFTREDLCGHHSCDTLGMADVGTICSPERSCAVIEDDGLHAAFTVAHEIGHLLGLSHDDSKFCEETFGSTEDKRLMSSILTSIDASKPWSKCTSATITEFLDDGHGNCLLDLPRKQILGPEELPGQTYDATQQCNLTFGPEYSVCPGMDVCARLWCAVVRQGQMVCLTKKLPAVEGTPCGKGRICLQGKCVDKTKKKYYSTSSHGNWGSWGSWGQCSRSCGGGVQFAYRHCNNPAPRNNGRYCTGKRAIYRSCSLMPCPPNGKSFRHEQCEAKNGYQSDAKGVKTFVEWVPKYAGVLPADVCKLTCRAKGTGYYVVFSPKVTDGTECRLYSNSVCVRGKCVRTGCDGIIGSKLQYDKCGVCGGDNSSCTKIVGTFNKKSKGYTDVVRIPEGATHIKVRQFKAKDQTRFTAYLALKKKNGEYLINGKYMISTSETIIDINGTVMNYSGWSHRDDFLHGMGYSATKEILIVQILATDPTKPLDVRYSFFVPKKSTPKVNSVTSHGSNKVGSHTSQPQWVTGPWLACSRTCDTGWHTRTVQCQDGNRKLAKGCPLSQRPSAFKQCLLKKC

SMILES | IC50 (human ADAMTS-5) [nM] | IC50 (human TACE) [µM]
C[C@H]1CN(C(=O)CCC2(C3CC3)NC(=O)NC2=O)CCN1c1ccc2c(cnn2C)c1 (stereo partly drawn) [compound 297, 5-cyclopropyl-5-[3-[(3S)-3-methyl-4-(1-methylindazol-5-yl)piperazin-1-yl]-3-oxo-propyl]imidazolidine-2,4-dione] | > 3620 | > 20
Cc1ccc(C2(CCC(=O)N3CCN(c4cc(F)cc(F)c4)[C@@H](C)C3)NC(=O)NC2=O)cn1 (stereo partly drawn) [compound 386, 5-[3-[(3S)-4-(3,5-difluorophenyl)-3-methyl-piperazin-1-yl]-3-oxo-propyl]-5-(6-methyl-3-pyridyl)imidazolidine-2,4-dione] | 48 | > 4
C[C@H]1CN(C(=O)CCC2(c3cccnc3)NC(=O)NC2=O)CCN1c1cc(Cl)cc(Cl)c1 (stereo partly drawn) [compound 318, 5-[3-[(3S)-4-(3,5-dichlorophenyl)-3-methyl-piperazin-1-yl]-3-oxo-propyl]-5-(3-pyridyl)imidazolidine-2,4-dione] | 59 | 2.19
C[C@H]1CN(C(=O)CCC2(C3CC3)NC(=O)NC2=O)CCN1c1ccc(F)c(-c2cn[nH]c2)c1 (stereo partly drawn) [compound 340, 5-cyclopropyl-5-[3-[(3S)-4-[4-fluoro-3-(1H-pyrazol-4-yl)phenyl]-3-methyl-piperazin-1-yl]-3-oxo-propyl]imidazolidine-2,4-dione] | 155 | > 4
Cc1ccc(N2CCN(C(=O)CCC3(C4CC4)NC(=O)NC3=O)C[C@@H]2C)cc1Cl (stereo partly drawn) [compound 306, 5-[3-[(3S)-4-(3-chloro-4-methyl-phenyl)-3-methyl-piperazin-1-yl]-3-oxo-propyl]-5-cyclopropyl-imidazolidine-2,4-dione] | 67 | > 4
CC(=O)N1CC(C2(CC(C)C(=O)N3CCN(c4ccc(F)c(F)c4)CC3)NC(=O)NC2=O)C1 (stereo not shown) [compound 248, 5-(1-acetylazetidin-3-yl)-5-[3-[4-(3,4-difluorophenyl)piperazin-1-yl]-2-methyl-3-oxo-propyl]imidazolidine-2,4-dione] | 49 | > 3.78
C[C@H]1CN(C(=O)CCC2(c3cn(C)cn3)NC(=O)NC2=O)CCN1c1cc(F)cc(F)c1 (stereo partly drawn) [compound 361, 5-[3-[(3S)-4-(3,5-difluorophenyl)-3-methyl-piperazin-1-yl]-3-oxo-propyl]-5-(1-methylimidazol-4-yl)imidazolidine-2,4-dione] | 51 | > 20
Cc1cc(N2CCN(C(=O)CC[C@@]3(C)NC(=O)NC3=O)C[C@@H]2C)cc(C)c1Cl [compound 400, (5R)-5-[3-[(3S)-4-(4-chloro-3,5-dimethyl-phenyl)-3-methyl-piperazin-1-yl]-3-oxo-propyl]-5-methyl-imidazolidine-2,4-dione] | 383 | 2.93
Cc1cc(C2(CCC(=O)N3CCN(c4cc(F)cc(F)c4)[C@@H](C)C3)NC(=O)NC2=O)no1 (stereo partly drawn) [compound 387, 5-[3-[(3S)-4-(3,5-difluorophenyl)-3-methyl-piperazin-1-yl]-3-oxo-propyl]-5-(5-methylisoxazol-3-yl)imidazolidine-2,4-dione] | 37 | > 4
CC(CC1(c2ccccn2)NC(=O)NC1=O)C(=O)N1CCN(c2ccc(F)c(F)c2)[C@@H](C)C1 (stereo partly drawn) [compound 264, 5-[3-[(3S)-4-(3,4-difluorophenyl)-3-methyl-piperazin-1-yl]-2-methyl-3-oxo-propyl]-5-(2-pyridyl)imidazolidine-2,4-dione] | 19 | > 4
C[C@H]1CN(C(=O)CCC2(C3CC3)NC(=O)NC2=O)CCN1c1cccc2c1ccn2C (stereo partly drawn) [compound 328, 5-cyclopropyl-5-[3-[(3S)-3-methyl-4-(1-methylindol-4-yl)piperazin-1-yl]-3-oxo-propyl]imidazolidine-2,4-dione] | > 4000 | > 20
C[C@H]1CN(C(=O)CCC2(c3ncccn3)NC(=O)NC2=O)CCN1c1cc(F)cc(F)c1 (stereo partly drawn) [compound 382, 5-[3-[(3S)-4-(3,5-difluorophenyl)-3-methyl-piperazin-1-yl]-3-oxo-propyl]-5-pyrimidin-2-yl-imidazolidine-2,4-dione] | 39 | > 20
CC(CC1(C2CN(C(=O)OC(C)(C)C)C2)NC(=O)NC1=O)C(=O)N1CCN(c2ccc(F)c(F)c2)[C@@H](C)C1 (stereo partly drawn) [compound 239, tert-butyl 3-[4-[3-[(3S)-4-(3,4-difluorophenyl)-3-methyl-piperazin-1-yl]-2-methyl-3-oxo-propyl]-2,5-dioxo-imidazolidin-4-yl]azetidine-1-carboxylate] | 46 | > 4
CC(CC1NC(=O)NC1=O)C(=O)N1CCN(c2ccc(F)c(Cl)c2)[C@@H](C)C1 (stereo partly drawn) [compound 441, 5-(3-((S)-4-(3-chloro-4-fluorophenyl)-3-methylpiperazin-1-yl)-2-methyl-3-oxopropyl)imidazolidine-2,4-dione] | 59 | > 20
C[C@H]1CN(C(=O)CCC2(C3CC3)NC(=O)NC2=O)CCN1c1cc(Cl)ncn1 (stereo partly drawn) [compound 256, 5-[3-[(3S)-4-(6-chloropyrimidin-4-yl)-3-methyl-piperazin-1-yl]-3-oxo-propyl]-5-cyclopropyl-imidazolidine-2,4-dione] | 1410 | > 20
C[C@H]1CN(C(=O)CCC2(C3CC3)NC(=O)NC2=O)CCN1c1ccc(Cl)nn1 (stereo partly drawn) [compound 285, 5-[3-[(3S)-4-(6-chloropyridazin-3-yl)-3-methyl-piperazin-1-yl]-3-oxo-propyl]-5-cyclopropyl-imidazolidine-2,4-dione] | 892 | > 4
C[C@H]1CN(C(=O)CCC2(C3CC3)NC(=O)NC2=O)CCN1c1nccc(Cl)n1 (stereo partly drawn) [compound 284, 5-[3-[(3S)-4-(4-chloropyrimidin-2-yl)-3-methyl-piperazin-1-yl]-3-oxo-propyl]-5-cyclopropyl-imidazolidine-2,4-dione] | > 12000 | > 20
C[C@H]1CN(C(=O)CCC2(C3CC3)NC(=O)NC2=O)CCN1c1ccnc(Cl)n1 (stereo partly drawn) [compound 301, 5-[3-[(3S)-4-(2-chloropyrimidin-4-yl)-3-methyl-piperazin-1-yl]-3-oxo-propyl]-5-cyclopropyl-imidazolidine-2,4-dione] | > 20000 | > 20
COc1ccc(C2(CCC(=O)N3CCN(c4cc(F)cc(F)c4)[C@@H](C)C3)NC(=O)NC2=O)cn1 (stereo partly drawn) [compound 356, 5-[3-[(3S)-4-(3,5-difluorophenyl)-3-methyl-piperazin-1-yl]-3-oxo-propyl]-5-(6-methoxy-3-pyridyl)imidazolidine-2,4-dione] | 40 | > 4
C[C@H]1CN(C(=O)C(CO)CC2(C)NC(=O)NC2=O)CCN1c1cccc(F)c1 (stereo partly drawn) [Cpd 268, 5-[3-[(3S)-4-(3-fluorophenyl)-3-methyl-piperazin-1-yl]-2-(hydroxymethyl)-3-oxo-propyl]-5-methyl-imidazolidine-2,4-dione] | 62 | > 4
CC(C)n1cc(-c2cccc(N3CCN(C(=O)CCC4(C5CC5)NC(=O)NC4=O)C[C@@H]3C)c2)cn1 (stereo partly drawn) [compound 370, 5-cyclopropyl-5-[3-[(3S)-4-[3-(1-isopropylpyrazol-4-yl)phenyl]-3-methyl-piperazin-1-yl]-3-oxo-propyl]imidazolidine-2,4-dione] | 532 | > 20
CC(CC1(C)NC(=O)NC1=O)C(=O)N1C[C@@H](C)N(c2cc(Cl)cc(Cl)c2)[C@@H](C)C1 (stereo partly drawn) [compound 243, 5-[3-[(3R,5S)-4-(3,5-dichlorophenyl)-3,5-dimethyl-piperazin-1-yl]-2-methyl-3-oxo-propyl]-5-methyl-imidazolidine-2,4-dione] | > 3890 | > 19.5
CC(CC1(C)NC(=O)NC1=O)C(=O)N1C[C@H](C)N(c2cc(Cl)cc(Cl)c2)[C@@H](C)C1 (stereo partly drawn) [compound 271, 5-[3-[(3S,5S)-4-(3,5-dichlorophenyl)-3,5-dimethyl-piperazin-1-yl]-2-methyl-3-oxo-propyl]-5-methyl-imidazolidine-2,4-dione] | 1300 | > 20
COCC1(CC(C)C(=O)N2CCN(c3ccc(F)cc3)[C@@H](C)C2)NC(=O)NC1=O (stereo partly drawn) [compound 366, 5-[3-[(3S)-4-(4-fluorophenyl)-3-methyl-piperazin-1-yl]-2-methyl-3-oxo-propyl]-5-(methoxymethyl)imidazolidine-2,4-dione] | 36 | > 4
C[C@H]1CN(C(=O)CCC2(c3cccnc3)NC(=O)NC2=O)CCN1c1ccc(Cl)c(Cl)c1 (stereo partly drawn) [compound 453, 5-[3-[(3S)-4-(3,4-dichlorophenyl)-3-methyl-piperazin-1-yl]-3-oxo-propyl]-5-(3-pyridyl)imidazolidine-2,4-dione] | 36 | 3.18
C[C@H]1CN(C(=O)CCC2(C3CC3)NC(=O)NC2=O)CCN1c1cccc(-c2cncnc2)c1 (stereo partly drawn) [compound 377, 5-cyclopropyl-5-[3-[(3S)-3-methyl-4-(3-pyrimidin-5-ylphenyl)piperazin-1-yl]-3-oxo-propyl]imidazolidine-2,4-dione] | 700 | > 20
CC(CC1(c2ccccn2)NC(=O)NC1=O)C(=O)N1CCN(c2cccc(Cl)c2)[C@@H](C)C1 (stereo partly drawn) [compound 269, 5-[3-[(3S)-4-(3-chlorophenyl)-3-methyl-piperazin-1-yl]-2-methyl-3-oxo-propyl]-5-(2-pyridyl)imidazolidine-2,4-dione] | 19 | 0.84
C[C@H]1CN(C(=O)CCC2(c3ccn(C)n3)NC(=O)NC2=O)CCN1c1cc(F)cc(F)c1 (stereo partly drawn) [compound 394, 5-[3-[(3S)-4-(3,5-difluorophenyl)-3-methyl-piperazin-1-yl]-3-oxo-propyl]-5-(1-methylpyrazol-3-yl)imidazolidine-2,4-dione] | 49 | > 20
C[C@@H](C[C@@]1(C2CC2)NC(=O)NC1=O)C(=O)N1CCN(c2cc(F)cc(-c3cn[nH]c3)c2)[C@@H](C)C1 [Cpd 379, 5-cyclopropyl-5-[3-[(3S)-4-[3-fluoro-5-(1H-pyrazol-4-yl)phenyl]-3-methyl-piperazin-1-yl]-2-methyl-3-oxo-propyl]imidazolidine-2,4-dione] | 18 | 1.49
